These are literature values, as cited in patent US20260218090A1, “A LOW-TEMPERATURE, CAUSTIC DISHWARE […]” (priority 2023, published 2026).

Read-outs that look alike come from different tables or passages of the source.

Data set [1] has as its system S. aureus. Conditions: NaOH 0.1 M (4,000 ppm); 4 or 22 °C; detection limit less than 3 organisms/mL; cited from earlier work.
For data set [2], the system named is A. niger. The note with it: NaOH 0.5 M (20,000 ppm); 4 or 22 °C; detection limit less than 3 organisms/mL; cited from earlier work.
The test system of data set [3] is C. albicans. The note with it: NaOH 0.5 M (20,000 ppm); 4 or 22 °C; detection limit less than 3 organisms/mL; cited from earlier work.
Data set [4] has as its system B. subtilis spores. Conditions: NaOH 1.0 M (40,000 ppm), cited from earlier work.
Data set [5] relates to E. coli. Conditions: NaOH 0.01 M (400 ppm); 4 or 22 °C; detection limit less than 3 organisms/mL; cited from earlier work.
For data set [6], the system named is P. aeruginosa. The note with it: NaOH 0.5 M (20,000 ppm); 22 °C; detection limit less than 3 organisms/mL; cited from earlier work.

As for `[Na+].[OH-]` [NaOH, sodium hydroxide], the “Time for reduction of the organism below the detection limit” value in data set [1] is 1 h; in data set [2], 1 h; in data set [3] it was 1 h; in data set [4] (4 °C, detection limit less than 100 organisms/mL) it was 8 days; in data set [4] (22 °C, detection limit 10 organisms/mL), 2 days; in data set [5] it was 2 h. Also, in data set [6], the “Time for reduction of the organism below the detection limit” value is 1 h.
